From patent publication US20230085307A1, “PYRIDAZINONE COMPOUND AND HERBICIDE” (NISSAN CHEMICAL CORPORATION, priority 2019, published 2023)

Tests used:
late watergrass = test: Test Example 1: herbicidal activity, application before weed generation under submerged conditions (Table 16, symbol A); type: in vivo, late watergrass (Echinochloa oryzicola); settings: 320 g/ha applied herbicide
Procedure, shortened: (§1)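 Submerged Wagner pots (alluvial soil, 4 cm water) sown with weed seeds and planted with 2.5-leaf rice seedlings; emulsifiable concentrate diluted in water applied to water surface on sowing day. Held in greenhouse at 25-30 °C; injury scored 0-5 by herbicidal rate after three weeks.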

Japanese bulrush [1] = test: Test Example 1: herbicidal activity, application before weed generation under submerged conditions (Table 16, symbol B); type: in vivo, Japanese bulrush (Schoenoplectus juncoides); settings: 320 g/ha applied herbicide
Procedure, shortened: as §1

Japanese bulrush [2] = test: Test Example 2: herbicidal activity, application during weed generation under submerged conditions (Table 17, symbol B); type: in vivo, Japanese bulrush (Schoenoplectus juncoides); settings: AAH 320 g/ha; application during weed generation, submerged conditions
Procedure, shortened: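 Herbicide emulsion, diluted with water to the chosen amount, is applied onto 4 cm floodwater over alluvial soil where the weeds were co-sown and raised at 25–30° C. Application timing: 1–2 leaves. Assessment: three weeks afterwards.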

barnyard grass [3] = test: Test Example 3: herbicidal effect by foliage application, Wagner pot (Table 18, symbol H); type: in vivo, barnyard grass (Echinochloa crus-galli); settings: 320 g/ha
Procedure, shortened: (§2)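 Plants were sown in alluvial soil held under 0.1–0.5 cm standing water and grown 14 days in a greenhouse at 25–30 °C. An emulsifiable formulation, water-diluted to the set dose, was then sprayed onto the foliage, and effects were scored three weeks later using previously defined criteria.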

Chinese sprangletop = test: Test Example 3: herbicidal effect by foliage application, Wagner pot (Table 18, symbol D); type: in vivo, chinese sprangletop (Leptochloa chinensis); settings: 320 g/ha
Procedure, shortened: as §2

southern crabgrass = test: Test Example 4: herbicidal effect by soil treatment (Table 19, symbol F); type: in vivo, southern crabgrass (Digitaria ciliaris); settings: 320 g/ha
Procedure, shortened: (§3)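 Emulsion of test compound, water-diluted to predetermined amount, sprayed on soil after sowing (seed depth ~1.5 cm, sterilized diluvial soil). Greenhouse, 25–30° C. Effect graded at three weeks post-spray.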

barnyard grass [4] = test: Test Example 4: herbicidal effect by soil treatment (Table 19, symbol H); type: in vivo, barnyard grass (Echinochloa crus-galli); settings: 320 g/ha
Procedure, shortened: as §3

windgrass [5] = test: Test Example 4: herbicidal effect by soil treatment (Table 19, symbol L); type: in vivo, windgrass (Apera spica-venti); settings: 320 g/ha
Procedure, shortened: as §3

lambsquarters [6] = test: Test Example 4: herbicidal effect by soil treatment (Table 19, symbol O); type: in vivo, lambsquarters (Chenopodium album); settings: 320 g/ha
Procedure, shortened: as §3

persian speedwell = test: Test Example 4: herbicidal effect by soil treatment (Table 19, symbol R); type: in vivo, Persian speedwell (Veronica persica); settings: 320 g/ha
Procedure, shortened: as §3

barnyard grass [7] = test: Test Example 5: herbicidal effect by foliage application, plastic box (Table 20, symbol H); type: in vivo, barnyard grass (Echinochloa crus-galli); settings: foliage application, 320 g/ha, evaluated three weeks after application
Procedure, shortened: (§4)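 Post-emergence foliar test in sterilized diluvial soil. Compound applied as water-diluted emulsion at a predetermined rate to 14-day-old plants; evaluation at three weeks.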

blackgrass = test: Test Example 5: herbicidal effect by foliage application, plastic box (Table 20, symbol J); type: in vivo, blackgrass (Alopecurus myosuroides); settings: foliage application, 320 g/ha, evaluated three weeks after application
Procedure, shortened: as §4

windgrass [8] = test: Test Example 5: herbicidal effect by foliage application, plastic box (Table 20, symbol L); type: in vivo, windgrass (Apera spica-venti); settings: foliage application, 320 g/ha, evaluated three weeks after application
Procedure, shortened: as §4

redroot pigweed = test: Test Example 5: herbicidal effect by foliage application, plastic box (Table 20, symbol N); type: in vivo, redroot pigweed (Amaranthus retroflexus); settings: foliage application, 320 g/ha, evaluated three weeks after application
Procedure, shortened: as §4

lambsquarters [9] = test: Test Example 5: herbicidal effect by foliage application, plastic box (Table 20, symbol O); type: in vivo, lambsquarters (Chenopodium album); settings: foliage application, 320 g/ha, evaluated three weeks after application
Procedure, shortened: as §4

chickweed = test: Test Example 5: herbicidal effect by foliage application, plastic box (Table 20, symbol P); type: in vivo, common chickweed (Stellaria media); settings: foliage application, 320 g/ha, evaluated three weeks after application
Procedure, shortened: as §4

Row | SMILES | Herbicidal effect on A: late watergrass (grade 0-5) (late watergrass) | Herbicidal effect on B: Japanese bulrush (grade 0-5) (Japanese bulrush [1]) | herbicidal effect rating, B: Japanese bulrush (Japanese bulrush [2]) | herbicidal effect on H (barnyard grass), rating 0-5 (barnyard grass [3]) | herbicidal effect on D (Chinese sprangletop), rating 0-5 (Chinese sprangletop) | herbicidal effect rating, F: southern crabgrass (southern crabgrass) | herbicidal effect rating, H: barnyard grass (barnyard grass [4]) | herbicidal effect rating, L: windgrass (windgrass [5]) | herbicidal effect rating, O: lambsquarters (lambsquarters [6]) | herbicidal effect rating, R: persian speedwell (persian speedwell) | herbicidal effect on H: barnyard grass (barnyard grass [7]) | herbicidal effect on J: blackgrass (blackgrass) | herbicidal effect on L: windgrass (windgrass [8]) | herbicidal effect on N: redroot pigweed (redroot pigweed) | herbicidal effect on O: lambsquarters (lambsquarters [9]) | herbicidal effect on P: chickweed (chickweed)
1 | C=CCOc1ccc(-c2sc3ccc(F)cc3c2-c2c(O)c(C)nn(C)c2=O)cc1 [2-051] | 3 (Herbicidal rate of 40% or more and less than 70%) | 4 (Herbicidal rate of 70% or more and less than 90%) | 3 (Herbicidal rate of 40% or more and less than 70%) | 5 (Herbicidal rate of 90% or more (almost completely withered)) | 5 (Herbicidal rate of 90% or more (almost completely withered)) | 5 (Herbicidal rate of 90% or more (almost completely withered)) | 4 (Herbicidal rate of 70% or more and less than 90%) | 3 (Herbicidal rate of 40% or more and less than 70%) | 5 (Herbicidal rate of 90% or more (almost completely withered)) | 4 (Herbicidal rate of 70% or more and less than 90%) | 5 (Herbicidal rate of 90% or more (almost completely withered)) | 5 (Herbicidal rate of 90% or more (almost completely withered)) | 5 (Herbicidal rate of 90% or more (almost completely withered)) | 5 (Herbicidal rate of 90% or more (almost completely withered)) | 5 (Herbicidal rate of 90% or more (almost completely withered)) | 5 (Herbicidal rate of 90% or more (almost completely withered))
2 | C#CCOc1ccc(-c2sc3ccc(F)cc3c2-c2c(O)c(C)nn(C)c2=O)cc1 [2-053] | 2 (Herbicidal rate of 20% or more and less than 40%) | 3 (Herbicidal rate of 40% or more and less than 70%) | 3 (Herbicidal rate of 40% or more and less than 70%) | 5 (Herbicidal rate of 90% or more (almost completely withered)) | 5 (Herbicidal rate of 90% or more (almost completely withered)) | 0 (Herbicidal rate of 5% or less (almost no effect)) | 2 (Herbicidal rate of 20% or more and less than 40%) | 0 (Herbicidal rate of 5% or less (almost no effect)) | 3 (Herbicidal rate of 40% or more and less than 70%) | 5 (Herbicidal rate of 90% or more (almost completely withered)) | 5 (Herbicidal rate of 90% or more (almost completely withered)) | 4 (Herbicidal rate of 70% or more and less than 90%) | 4 (Herbicidal rate of 70% or more and less than 90%) | 5 (Herbicidal rate of 90% or more (almost completely withered)) | 5 (Herbicidal rate of 90% or more (almost completely withered)) | 5 (Herbicidal rate of 90% or more (almost completely withered))
3 | CSc1ccc(-c2sc3ccc(F)cc3c2-c2c(O)c(C)nn(C)c2=O)cc1 [2-076] | 3 (Herbicidal rate of 40% or more and less than 70%) | 0 (Herbicidal rate of 5% or less (almost no effect)) | 3 (Herbicidal rate of 40% or more and less than 70%) | 5 (Herbicidal rate of 90% or more (almost completely withered)) | 5 (Herbicidal rate of 90% or more (almost completely withered)) | 3 (Herbicidal rate of 40% or more and less than 70%) | 3 (Herbicidal rate of 40% or more and less than 70%) | 4 (Herbicidal rate of 70% or more and less than 90%) | 3 (Herbicidal rate of 40% or more and less than 70%) | 5 (Herbicidal rate of 90% or more (almost completely withered)) | 5 (Herbicidal rate of 90% or more (almost completely withered)) | 4 (Herbicidal rate of 70% or more and less than 90%) | 5 (Herbicidal rate of 90% or more (almost completely withered)) | 5 (Herbicidal rate of 90% or more (almost completely withered)) | 5 (Herbicidal rate of 90% or more (almost completely withered)) | 5 (Herbicidal rate of 90% or more (almost completely withered))
4 | CCCC(=O)Oc1c(C)nn(C)c(=O)c1-c1c(-c2ccc(SC)cc2)sc2ccc(F)cc12 [2-077] | 3 (Herbicidal rate of 40% or more and less than 70%) | 4 (Herbicidal rate of 70% or more and less than 90%) | 3 (Herbicidal rate of 40% or more and less than 70%) | 5 (Herbicidal rate of 90% or more (almost completely withered)) | 5 (Herbicidal rate of 90% or more (almost completely withered)) | 2 (Herbicidal rate of 20% or more and less than 40%) | 3 (Herbicidal rate of 40% or more and less than 70%) | 3 (Herbicidal rate of 40% or more and less than 70%) | 5 (Herbicidal rate of 90% or more (almost completely withered)) | 5 (Herbicidal rate of 90% or more (almost completely withered)) | 5 (Herbicidal rate of 90% or more (almost completely withered)) | 4 (Herbicidal rate of 70% or more and less than 90%) | 5 (Herbicidal rate of 90% or more (almost completely withered)) | 5 (Herbicidal rate of 90% or more (almost completely withered)) | 5 (Herbicidal rate of 90% or more (almost completely withered)) | 5 (Herbicidal rate of 90% or more (almost completely withered))
